21 compounds from patent publication US10023539B2, “Aryl-cyanoguanidine compounds” (Bayer Pharma Aktiengesellschaft, priority 2014, dated 2018) can be followed below.

Chain of SMYD2 (Q9NRG4 whole entry): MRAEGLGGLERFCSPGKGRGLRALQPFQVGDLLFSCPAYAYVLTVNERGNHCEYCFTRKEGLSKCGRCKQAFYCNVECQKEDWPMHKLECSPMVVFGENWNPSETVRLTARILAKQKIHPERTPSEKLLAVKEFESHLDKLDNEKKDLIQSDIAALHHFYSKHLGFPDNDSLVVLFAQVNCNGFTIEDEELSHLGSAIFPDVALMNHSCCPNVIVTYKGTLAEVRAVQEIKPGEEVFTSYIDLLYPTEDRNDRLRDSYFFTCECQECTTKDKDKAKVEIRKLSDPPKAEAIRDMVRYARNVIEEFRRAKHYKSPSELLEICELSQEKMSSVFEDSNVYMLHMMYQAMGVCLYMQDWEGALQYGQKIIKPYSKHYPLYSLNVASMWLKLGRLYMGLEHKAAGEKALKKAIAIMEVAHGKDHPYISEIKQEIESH

The assay addresses SMYD2 (Homo sapiens (Human), UniProt Q9NRG4). Kind of assay: Scintillation Proximity Assay (SPA) for detection of SMYD2 enzymatic inhibition. It counts as biochemical. The note with it: methylation of biotinylated p53 Peptide, 3H-SAM, full length SMYD2; read-out: IC50 [mol/l] (SPA Assay). How it is done:
1.1 Scintillation Proximity Assay (SPA) for Detection of SMYD2 Enzymatic Inhibition
The SMYD2 full length enzyme was produced in-house by expression (with an N-terminal 6×His tag) in E. coli and purification by affinity chromatography on a Ni-NTA Sepharose column followed by a size exclusion chromatography step on a Superdex 200 16/60 column (GE Healthcare).
To this end, 100-fold concentrated compound solutions (in DMSO) were previously prepared by serial dilution (1:3.4) of 2 mM stocks in a clear low volume 384-well source microtiter plate (Greiner Bio-One), from which 50 nl of compound solutions were transferred into a white low volume test microtiter plate from the same supplier. […] The samples were then incubated for 15 min at 22° C. to allow pre-equilibration of the putative enzyme-inhibitor complexes before the start of the methylation reaction, which was initiated by the addition of 2.5 μl 2-fold concentrated solution (in assay buffer) of titrated S-Adenosyl-L-Methionine (3H-SAM, Perkin Elmer, final concentration: 60 nM) and p53 Peptide substrate (final concentration: 1.0 μM). The resulting mixture (5 μl final volume) was shortly centrifuged (2 min., 1500 rpm) and incubated at 22° C. during 30 min. Thereupon the reaction was stopped by adding 3 μl of Streptavidin PS SPA imaging beads (Perkin Elmer, final concentration of 3.12 μg/μl) and “cold” SAM (AK Scientific, 25 μM final concentration) for non-specific binding reduction. Plates containing the stopped reaction were sealed with transparent adhesive foil (Perkin Elmer), centrifuged (2 min., 1500 rpm), and further incubated for—at least—1 h at RT (or overnight at 4° C.) in order to allow the SPA signals to develop. […] IC50 values were calculated by fitting the normalized inhibition data to a 4-parameter logistic equation using the “Screener” analysis software from Genedata.
In the case of `C[C@H](O)C(=O)NC1CN(/C(=N\C#N)Nc2cccc(OC(F)F)c2)N=C1c1ccc(Cl)c(Cl)c1` (mixture of isomers) [Example 1, (2S)—N-[1-{N′-cyano-N-[3-(difluoromethoxy)phenyl]carbamimidoyl}-3-(3,4-dichlorophenyl)-4,5-dihydro-1H-pyrazol-4-yl]-2-hydroxypropanamide], the IC50 stood at 0.518 µM. To `CN(C(=O)CO)C1CN(/C(=N\C#N)Nc2cccc(OC(F)F)c2)N=C1c1ccc(Cl)c(Cl)c1` (racemic) [Example 2, Rac-N-[1-{N′-cyano-N-[3-(difluoromethoxy)phenyl]carbamimidoyl}-3-(3,4-dichlorophenyl)-4,5-dihydro-1H-pyrazol-4-yl]-2-hydroxy-N-methylacetamide] belongs 0.0833 µM; to `CCN(C(=O)CO)C1CN(/C(=N\C#N)Nc2cccc(OC(F)(F)F)c2F)N=C1c1ccc(Cl)c(Cl)c1` (racemic) [Example 12, Rac-N-[1-{N′-cyano-N-[2-fluoro-3-(trifluoromethoxy)phenyl]carbamimidoyl}-3-(3,4-dichlorophenyl)-4,5-dihydro-1H-pyrazol-4-yl]-N-ethyl-2-hydroxyacetamide], 0.138 µM; to `CCN(C(=O)CO)C1CN(/C(=N\C#N)Nc2ccc(F)c(OC(F)(F)F)c2)N=C1c1ccc(Cl)c(Cl)c1` (racemic) [Example 14, Rac-N-[1-{N′-cyano-N-[4-fluoro-3-(trifluoromethoxy)phenyl]carbamimidoyl}-3-(3,4-dichlorophenyl)-4,5-dihydro-1H-pyrazol-4-yl]-N-ethyl-2-hydroxyacetamide], 0.147 µM. For `CCN(C(=O)CN)C1CN(/C(=N\C#N)Nc2cccc(OCCN(C)C)c2)N=C1c1ccc(Cl)c(Cl)c1` (racemic) [Example 17, Rac-N-[1-(N′-cyano-N-{3-[2-(dimethylamino)ethoxy]phenyl}carbamimidoyl)-3-(3,4-dichlorophenyl)-4,5-dihydro-1H-pyrazol-4-yl]-N-ethylglycinamide] the value was 0.0595 µM; for `CCN(C(=O)CO)C1CN(/C(=N\C#N)Nc2ccc(F)c(OC(F)F)c2)N=C1c1ccc(Cl)c(Cl)c1` (racemic) [Example 22, Rac-N-[1-{N′-cyano-N-[3-(difluoromethoxy)-4-fluorophenyl]carbamimidoyl}-3-(3,4-dichlorophenyl)-4,5-dihydro-1H-pyrazol-4-yl]-N-ethyl-2-hydroxyacetamide], 0.0648 µM; for `CCN(C(=O)CO)C1CN(/C(=N\C#N)Nc2cccc(OC(F)F)c2F)N=C1c1ccc(Cl)c(Cl)c1` (racemic) [Example 23, Rac-N-[1-{N′-cyano-N-[3-(difluoromethoxy)-2-fluorophenyl]carbamimidoyl}-3-(3,4-dichlorophenyl)-4,5-dihydro-1H-pyrazol-4-yl]-N-ethyl-2-hydroxyacetamide], 0.0674 µM.

Turning to `CCN(C(=O)CO)C1CN(/C(=N\C#N)Nc2cc(F)cc(OC(F)F)c2)N=C1c1ccc(Cl)c(Cl)c1` (racemic) [Example 24, Rac-N-[1-{N′-cyano-N-[3-(difluoromethoxy)-5-fluorophenyl]carbamimidoyl}-3-(3,4-dichlorophenyl)-4,5-dihydro-1H-pyrazol-4-yl]-N-ethyl-2-hydroxyacetamide], the IC50 worked out at 0.0631 µM. To `CCN(C(=O)CO)C1CN(/C(=N\C#N)Nc2cc(OC(F)(F)F)ccc2OC)N=C1c1ccc(Cl)c(Cl)c1` (racemic) [Example 26, Rac-N-[1-{N′-cyano-N-[2-methoxy-5-(trifluoromethoxy)phenyl]carbamimidoyl}-3-(3,4-dichlorophenyl)-4,5-dihydro-1H-pyrazol-4-yl]-N-ethyl-2-hydroxyacetamide] belongs 0.0306 µM; to `CCN(C(=O)CO)C1CN(/C(=N\C#N)Nc2cc(C(F)(F)F)ccc2OC(F)(F)F)N=C1c1ccc(Cl)c(Cl)c1` (racemic) [Example 28, Rac-N-[1-{N′-cyano-N-[2-(trifluoromethoxy)-5-(trifluoromethyl)phenyl]carbamimidoyl}-3-(3,4-dichlorophenyl)-4,5-dihydro-1H-pyrazol-4-yl]-N-ethyl-2-hydroxyacetamide], 0.14 µM; to `CCN(C(=O)CO)C1CN(/C(=N\C#N)Nc2cc(C(F)(F)F)ccc2OCCN2CCCC2)N=C1c1ccc(Cl)c(Cl)c1` (racemic) [Example 30, Rac-N-[r-(N′-cyano-N-[2-[2-(pyrrolidin-1-yl)ethoxy]-5-(trifluormethyl)phenyl]carbamimidoyl)-3-(3,4-dichlorophenyl)-4,5-dihydro-1H-pyrazol-4-yl]-N-ethyl-2-hydroxyacetamide], 0.0158 µM. For `CCN(C(=O)CO)C1CN(/C(=N\C#N)Nc2cccc(OC(F)(F)F)c2)N=C1c1ccc(Cl)c(F)c1` (racemic) [Example 35, Rac-N-[3-(4-chloro-3-fluorophenyl)-1-{N′-cyano-N-[3-(trifluoromethoxy)phenyl]-carbamimidoyl}-4,5-dihydro-1H-pyrazol-4-yl]-N-ethyl-2-hydroxyacetamide] the value was 0.157 µM; for `CCN(C(=O)CO)C1CN(/C(=N\C#N)Nc2ccc(Cl)c(OC(F)F)c2)N=C1c1ccc(Cl)c(Cl)c1` (single isomer, unassigned) [Example 11.1, N-[1-{N-[4-chloro-3-(difluoromethoxy)phenyl]-N′-cyanocarbamimidoyl}-3-(3,4-dichlorophenyl)-4,5-dihydro-1H-pyrazol-4-yl]-N-ethyl-2-hydroxyacetamide], 0.0441 µM; for `CCN(C(=O)CO)C1CN(/C(=N\C#N)Nc2ccc(Cl)c(OC(F)F)c2)N=C1c1ccc(Cl)c(Cl)c1` (single isomer, unassigned) [Example 11.2, N-[1-{N-[4-chloro-3-(difluoromethoxy)phenyl]-N′-cyanocarbamimidoyl}-3-(3,4-dichlorophenyl)-4,5-dihydro-1H-pyrazol-4-yl]-N-ethyl-2-hydroxyacetamide], 2.98 µM.

As for `CCN(C(=O)CO)C1CN(/C(=N\C#N)Nc2cccc(OC(F)(F)F)c2F)N=C1c1ccc(Cl)c(Cl)c1` (single isomer, unassigned) [Example 12.1, N-[1-{N′-cyano-N-[2-fluoro-3-(trifluoromethoxy)phenyl]carbamimidoyl}-3-(3,4-dichlorophenyl)-4,5-dihydro-1H-pyrazol-4-yl]-N-ethyl-2-hydroxyacetamide], the IC50 came to 2.66 µM. For `CCN(C(=O)CO)C1CN(/C(=N\C#N)Nc2cccc(OC(F)(F)F)c2F)N=C1c1ccc(Cl)c(Cl)c1` (single isomer, unassigned) [Example 12.2, N-[1-{N′-cyano-N-[2-fluoro-3-(trifluoromethoxy)phenyl]carbamimidoyl}-3-(3,4-dichlorophenyl)-4,5-dihydro-1H-pyrazol-4-yl]-N-ethyl-2-hydroxyacetamide] the value was 0.0541 µM; for `CCN(C(=O)CO)C1CN(/C(=N\C#N)Nc2cc(F)cc(OC(F)F)c2)N=C1c1ccc(Cl)c(Cl)c1` (single isomer, unassigned) [Example 24.1, N-[1-{N′-cyano-N-[3-(difluoromethoxy)-5-fluorophenyl]carbamimidoyl}-3-(3,4-dichlorophenyl)-4,5-dihydro-1H-pyrazol-4-yl]-N-ethyl-2-hydroxyacetamide], 2.51 µM. For the compound `CCN(C(=O)CO)C1CN(/C(=N\C#N)Nc2cc(F)cc(OC(F)F)c2)N=C1c1ccc(Cl)c(Cl)c1` (single isomer, unassigned) [Example 24.2, N-[1-{N′-cyano-N-[3-(difluoromethoxy)-5-fluorophenyl]carbamimidoyl}-3-(3,4-dichlorophenyl)-4,5-dihydro-1H-pyrazol-4-yl]-N-ethyl-2-hydroxyacetamide], the IC50 worked out at 0.0192 µM. To `CCN(C(=O)[C@H](C)N)C1CN(/C(=N\C#N)Nc2cccc(OC(F)F)c2)N=C1c1ccc(Cl)c(C)c1` (single isomer, unassigned) [Example 34.1, N-[3-(4-chloro-3-methylphenyl)-1-{N′-cyano-N-[3-(difluoromethoxy)phenyl]carbamimidoyl}-4,5-dihydro-1H-pyrazol-4-yl]-N-ethyl-L-alaninamide] belongs 15.4 µM; to `CCN(C(=O)[C@H](C)N)C1CN(/C(=N\C#N)Nc2cccc(OC(F)F)c2)N=C1c1ccc(Cl)c(C)c1` (single isomer, unassigned) [Example 34.2, N-[3-(4-chloro-3-methylphenyl)-1-{N′-cyano-N-[3-(difluoromethoxy)phenyl]carbamimidoyl}-4,5-dihydro-1H-pyrazol-4-yl]-N-ethyl-L-alaninamide], 0.488 µM; to `CCN(C(=O)[C@H](N)CC(C)C)C1CN(/C(=N\C#N)Nc2cccc(OC(F)(F)F)c2)N=C1c1ccc(Cl)c(Cl)c1` (stereo partly drawn) [Example 39, N-[1-{N′-cyano-N-[3-(trifluoromethoxy)phenyl]carbamimidoyl}-3-(3,4-dichlorophenyl)-4,5-dihydro-1H-pyrazol-4-yl]-N-ethyl-D-leucinamide], 2.4 µM.
